What was measured:
Assay in all cases: microbe, parasite or virus in culture
[1] = test system: Mycobacterium tuberculosis
[2] = test system: Mycobacterium tuberculosis; remark: listed apart in the source
[3] = test system: Mycobacterium tuberculosis; remark: listed apart in the source

SMILES | MIC [1] | MIC [2] | MIC [3]
COc1ccc2nc(C)cc(OCCCNc3ccc(I)cc3)c2c1 | < 0.05 µM | < 0.05 µM | < 0.05 µM
COc1ccc2nc(C)cc(OCCCNc3ccc(Br)cc3)c2c1 | < 0.05 µM | < 0.05 µM | < 0.05 µM
CCc1ccc(NCCCOc2cc(CC)nc3ccc(Br)cc23)cc1 | < 0.05 µM | < 0.05 µM | < 0.05 µM
Cc1cc(OCCCNc2ccc(Cl)cc2)c2cc(Br)ccc2n1 | < 0.05 µM | < 0.05 µM | < 0.05 µM
CCc1ccc(NCCCOc2cc(C)nc3ccc(Br)cc23)cc1 | < 0.05 µM | < 0.05 µM | < 0.05 µM
CCc1ccc(NCCCOc2cc(C)nc3ccc(Cl)cc23)cc1 | < 0.06 µM | < 0.06 µM | < 0.06 µM
Cc1cc(OCCCNc2ccc(Br)cc2)c2cc(Cl)ccc2n1 | < 0.06 µM | < 0.06 µM | < 0.06 µM
